Reference: patent publication US20110044892A1, “FORMULATION AND METHOD FOR TREATMENT OF TEETH” (priority 2007, published 2011)

Assays:
[1] = Dentinal tubule plugging by lanthanide salt solutions on etched dentine discs (SEM, backscattered SEM, EDX); parameters: species or system human; conditions: for penetration of / deposits within the tubules (qualitative): in water; for penetration of / deposits within the tubules (qualitative) / depth of penetration within the tubules: SEM; for blockage or plugging of the tubules (SEM appearance) / deposits on / coverage of the dentinal surface: solution in water; for blockage or plugging of the tubules (SEM appearance) / deposits on / coverage of the dentinal surface / depth of penetration within the tubules: 5 to 10 minutes on disc; for presence of the lanthanide by EDX: energy dispersive X-ray microanalysis of treated dentine; for depth of penetration within the tubules: 4% to 5% by weight solution in water
Excerpt: We also assessed other lanthanide compounds, as hereinafter discussed.
For each of the lanthanide salts, caries-free surgically-extracted human molar teeth were cleaned of organic material and, after removal of the crown, sectioned mesio-distally to provide one to two 1-mm dentine discs which were used in the experiment immediately. […] A solution containing a respective one of the above-mentioned lanthanide salts in a concentration of 4% to 5% by weight in the solvent was placed on or in contact with the discs respectively for 5 to 10 minutes before rinsing under flowing tap water. These treated discs were dried completely and then split using pliers, this helping to expose the tubular area for observation of depth of penetration. Specimens were then carbon-coated before examination under SEM (scanning electron microscope). The same procedure was used for each of the other lanthanide compounds hereinafter discussed.
When observed in a backscattered electron beam, dense materials appear as high contrast (bright areas) material relative to the background material (tooth structure). Lanthanides in general have greater density compared to the hydroxyapatite present in the tooth. Thus, in a backscattered electron beam, the lanthanides appear as bright areas due to their high density compared to the background.

[2] = Excerpt: For the purposes of this specification and the claims, the term “soluble” refers to a characteristic of a salt of dissolving in water (or other solvent in which the salt is placed) to the extent that there is substantially no precipitation or settling out of material.
[3] = pH of solution or formulation; assay type: physicochemical; conditions: solution as applied to dentin
Excerpt: If the solution applied to the dentin is too acidic, for example, lower than 5.5, it will demineralize and thereby undesirably weaken the dentin. If the solution applied to the dentin is too basic, for example, in excess of 7.5, it will undesirably form a lot of calculus. An ideal pH for the dentin treatment solution is considered to be about 6 to 7, preferably about 6.6 to 7. Such a pH is believed to be important not only to prevent de-mineralization but also to aid in re-mineralization of dentin surfaces. Therefore, in accordance with the present invention, the dentin treatment solution is formulated to have a pH of about 6 to 7, preferably about 6.6 to 7. […] The formulation with the addition of the insoluble oxide forms on the surface of the dentin or other tooth surface a protective coat that keeps the pH constant to maintain the tooth integrity and protect its surface from, for example, routinely used acidic beverages, protection of dental restorations, and microleakage protection (protection from bacterial leakage and leakage associated with restorative materials) as well as for re-mineralization. The insoluble oxide may include other insoluble substances providing a pH of about 6 to 7 in the dentin treatment solution and on the dentin surfaces, for example, amphoteric oxides such as aluminum oxide and zinc oxide. […]

Row | SMILES | penetration of / deposits within the tubules (qualitative) [1] | blockage or plugging of the tubules (SEM appearance) [1] | deposits on / coverage of the dentinal surface [1] | solubility in water [2] | presence of the lanthanide by EDX [1] | pH of solution [3] | depth of penetration within the tubules [1]
1 | [La+3].[OH-].[OH-].[OH-] [lanthanum hydroxide] | poor penetration of the tubules | no plugging observed | no dentin surface deposits were observed | not being soluble in water |  |  | 
2 | O=C([O-])[O-].O=C([O-])[O-].O=C([O-])[O-].[La+3].[La+3] [lanthanum carbonate] | poor penetration of the tubules | no plugging observed | no dentin surface deposits were observed |  |  |  | 
3 | O=[N+]([O-])[O-].[K+] [potassium nitrate, reference compound] | little or no deposits within the tubules |  | considerable deposits on the surface |  |  |  | 
4 | O.O.O.O.O.O.[Cl][Sm]([Cl])[Cl] [samarium chloride, samarium chloride hexahydrate] |  | substantially complete blockage or plugging of the tubules | cover substantially the dentinal surface |  | confirmed |  | 
5 | O.O.O.O.O.O.[Cl-].[Cl-].[Cl-].[Gd+3] [gadolinium chloride, gadolinium chloride hexahydrate] |  | substantially complete blockage or plugging of the tubules | cover substantially the dentinal surface |  | confirmed |  | 
6 | O=C([O-])C(=O)[O-].[K+].[K+] [potassium oxalate, reference compound] |  | formed crystals that appear to block the tubules | a substantial amount of potassium oxalate was deposited on the dentin surface |  |  | about 2 | 3 to 4 microns
7 | O.O.O.O.O.O.O=[N+]([O-])[O-].O=[N+]([O-])[O-].O=[N+]([O-])[O-].[Gd+3] [gadolinium nitrate, gadolinium nitrate hexahydrate] |  | substantially complete blockage or plugging of the tubules | substantially covering the dentinal surface |  | confirmed | about 4.3 | up to 5 microns
8 | O.O.O.O.O.O.O.[Cl-].[Cl-].[Cl-].[La+3] [lanthanum chloride, lanthanum chloride heptahydrate] |  | substantially complete blockage or plugging of the tubules | cover some of the surface |  | confirmed |  | up to 12 microns
9 | O.O.O.O.O.O.O.[Ce+3].[Cl-].[Cl-].[Cl-] [cerium chloride, cerium chloride heptahydrate] |  | substantially complete blockage or plugging of the tubules | cover substantially the dentinal surface |  | confirmed |  | 
